Columns and labels:
[1] = system: dermal human fibroblasts; assay: UVA radiation-induced formation of mitochondrial DNA mutations (common deletion), PCR (Example B4); type: cell-based; conditions: 1 mM pretreatment, 8 J/cm^2 UVA three times daily, four successive days, three weeks, FIG. 4
From the text: Dermal human fibroblasts are cultivated in Eagle minimal medium. The cells are irradiated three times daily with 8 J/cm^2 of UVA on four successive days over a total of three weeks. The mt-DNA is then extracted and amplified using PCR. Further details on the method are described in detail in M. Berneburg, S. Grether-Beck, V. Kürten, Th. Ruzicka, K. Briviba, H. Sies, J. Krutmann, J Biol Chem 274 (1999) 15345-15349 and M. Berneburg, N. Gattermann, H. Stege, M. Grewe, K. Vogelsang, Th. Ruzicka, J. Krutmann, Photobiol. 66 (1997) 271-275.

[2] = system: normal human keratinocytes; assay: Inhibition of UV-A-induced ceramide formation, quantitative HPTLC (Example B1); type: cell-based; conditions: 1 mM pre-incubation for 24 hours, UVA 30 J/cm^2, 1 hour after irradiation, FIG. 1
Description: The concentration of a second messenger (ceramide) in UVA-irradiated normal human keratinocytes which have either been pretreated with 1 mM RONACARE™ ectoin or are untreated compared with unirradiated keratinocytes is measured using a quantitative HPTLC method. (A) Un-pretreated control, (B) pre-incubated only with the cell medium for 24 hours, (C) pre-incubated with 1 mM RONACARE™ ectoin for 24 hours. The cells pre-treated in this way are irradiated with a single dose of UVA of 30 J/cm^2 (radiation source: Sellamed 24000). The cells are “harvested” 1 hour after irradiation, a lipid extraction is carried out, and the concentration of the second messenger is determined by quantitative HPTLC. Methodological details are given in Grether-Beck Set al., EMBO J 19: 5793-5800, 2000. […] The data are shown as histograms of ectoin (mM) against ceramide (ng).

[3] = system: transcription factor AP-2; assay: Inhibition of UV-A-induced AP-2 activation, gel electrophoresis mobility shift assay (Example B2); type: cell-based; conditions: human keratinocytes, 1 mM pre-incubation for 24 hours, UV-A 30 J/cm^2, FIG. 2
Description: The determination of the activation of transcription factor AP-2 is carried out with the aid of gel electrophoresis mobility shift assays (GEMSA). To this end, a nucleus extract (according to J.D. Dignam, P.L.Martin, B.S. Skastry, R.G.G. Roeder, Methods Enzymol 101 (1983) 582-598) of human keratinocytes which had previously been irradiated for 1 hour with 30 J/cm^2 of UV-A light is incubated in comparison with an unirradiated control with the consensus oligonucleotide sequence of ICAM-1 promoter (in accordance with G.G. Stade, G. Messer, G. Riethmüller, J.P. Johannson; Immunobiology 182 (1990) 79-87). The amount of bound AP-2 is subsequently determined by means of GEMSA. (A) Un-pretreated, unirradiated control, (B) pre-incubated with 1 mM RONACARE™ ectoin for 24 hours and irradiated with a single dose of 30 J/cm^2, or (C) pre-incubated only with the cell medium for 24 hours and irradiated with 30 J/cm^2. The UVA irradiation results in activation of transcription factor AP-2 after UVA exposure.

[4] = system: ICAM-1; assay: Inhibition of UV-A-induced ICAM-1 expression, differential RT-PCR (Example B3); type: cell-based, human; conditions: keratinocytes, 1 mM pre-incubation for 24 hours, UVA 30 J/cm^2, relative to β-actin, all points in time, FIG. 3
Description: The expression of ICAM-1 is measured using differential reverse transcriptase PCR (RT -PCR) and the kit from Applied Biosystem. In order to take into account the normal variations in gene expression of skin cells, the ICAM-1 expression is compared with the housekeeping gene β-actin formed constitutively. Semiquantitative analysis of the RT-PCR is carried out by ion exchange chromatography using a UV spectrophotometer (A260). (A) Un-pretreated, irradiated control, (B) pre-incubated with 1 mM RONACARE™ ectoin for 24 hours and irradiated with a single dose of 30 J/cm^2, or (C) pre-incubated with 1 mM ectoin for 24 hours, unirradiated. The UVA radiation induces an increase in ICAM-1 expression.

[5] = system: normal human keratinocytes; assay: Release of second messenger in UV-A-irradiated keratinocytes (Example A); type: cell-based; conditions: 2 mM for 24 hours
Description: Normal human keratinocytes which are left untreated or have been treated with a 2 mM solution of RONACARE™ ectoin for 24 hours are subjected to a UV-A radiation dose of 30 J/cm^2 (wavelength of the UV-A radiation: 340-400 nm). […] The cells are harvested 1 hour after irradiation (=maximum UV-A-induced second messenger formation). The release of the second messenger was determined.

CC1=N[C@H](C(=O)O)CCN1 [RONACARE™ ectoin, (S)-1,4,5,6-tetrahydro-2-methyl-4-pyrimidinecarboxylic acid]
formation of mt-DNA mutations [1]: prevented the formation of mt-DNA mutations | ceramide formation induced by UVA radiation [2]: completely suppresses ceramide formation | activation of transcription factor AP-2 after UVA exposure [3]: suppressed virtually completely | ICAM-1 induction induced by UVA radiation [4]: virtually completely eliminate ICAM-1 induction | UV-A-induced release of the second messenger ([5]; UV-A 30 J/cm^2): inhibits the UV-A-induced release of the second messenger | Increase in second messenger ([5]; UV-A 30 J/cm^2 (340-400 nm), harvested 1 hour after irradiation): 5.65 ng

From patent publication US7981899B2, “Use of compatible solutes for inhibiting the release of ceramides” (Merck Patent GmbH, priority 2002, dated 2011)
